# Test results as given in patent publication US20230255975A1, “METHODS FOR TREATING CANCER WITH COMBINATION THERAPIES” (Celgene Corporation, priority 2020, published 2023).
# Assays:
# Assay type in all cases: cell-based
# [1] = system: AMO1 cell line; experiment: Proliferation assay
# Description: (§1) Proliferation and viability assays: Cell growth curves were determined by monitoring the viability of cells with Trypan blue exclusion on a Vi-Cell-XR (Becton Dickinson, Franklin Lakes, N.J., USA). Proliferation assays were performed in triplicate at least three times (n=3) using (3H)-thymidine incorporation. All data were plotted and analyzed using GraphPad Prism 7 (GraphPad Software, La Jolla, Calif., USA) software, represented as the mean with an error determined as ±s.d.
# as §1, with “assay.” for “assays:”, “Cell lines” for “Proliferation assays”, “plated” for “performed”, “in 96-well round-bottom plates with the indicated drug concentrations or knockdown cells. […]” for “at least three times (n=3) using (3H)-thymidine incorporation.”
# [2] = system: AMO1-PR (pomalidomide resistant) cell line; experiment: Proliferation assay
# Description: as §1
# as §1, with “assay.” for “assays:”, “Cell lines” for “Proliferation assays”, “plated” for “performed”, “in 96-well round-bottom plates with the indicated drug concentrations or knockdown cells. […]” for “at least three times (n=3) using (3H)-thymidine incorporation.”
# [3] = system: K12PE cell line; experiment: Proliferation assay
# Description: as §1
# as §1, with “assay.” for “assays:”, “Cell lines” for “Proliferation assays”, “plated” for “performed”, “in 96-well round-bottom plates with the indicated drug concentrations or knockdown cells. […]” for “at least three times (n=3) using (3H)-thymidine incorporation.”
# [4] = system: K12PE-PR cell line; experiment: Proliferation assay
# Description: as §1
# as §1, with “assay.” for “assays:”, “Cell lines” for “Proliferation assays”, “plated” for “performed”, “in 96-well round-bottom plates with the indicated drug concentrations or knockdown cells. […]” for “at least three times (n=3) using (3H)-thymidine incorporation.”
# [5] = system: AMO1 control shRNA cells; experiment: Proliferation assay in control shRNA cells; conditions: Homo sapiens; control shRNA AMO1 cells; read-out: IC50, proliferation
# Description: (§2) Proliferation and viability assay. Cell growth curves were determined by monitoring the viability of cells with Trypan blue exclusion on a Vi-Cell-XR (Becton Dickinson, Franklin Lakes, N.J., USA). Cell lines were plated in triplicate in 96-well round-bottom plates with the indicated drug concentrations or knockdown cells. Proliferation assays were performed in triplicate at least three times (n=3) using either the WST-1 tetrazolium salt (Roche Applied Science) reagent used according to the manufacturer's specifications or by (3H)-thymidine incorporation as previously described (Bjorklund et al., Blood Cancer Journal 5, e354, 2015). All data were plotted and analyzed using GraphPad Prism 7 (GraphPad Software, La Jolla, Calif., USA) software, represented as the mean with an error determined as ±s.d.
# (§3) To further confirm the synergistic effect, shRNA knockdown was combined with either Compound 5 or Compound 6 treatment. Expression of control and NEK2 shRNA in AMO1 cell lines was induced, followed by exposure of the cells to increasing concentrations of Compound 5 and Compound 6. The results were measured through a proliferation assay.
# [6] = system: AMO1 NEK2 shRNA (NEK2 knocked-down) cells; experiment: Proliferation assay in NEK2 knocked-down cells
# Description: as §2, §3
# [7] = system: MM cell lines; experiment: Cell cycle analysis (PI staining, flow cytometry) in response to Compound 5; conditions: for sub-G1 population: vehicle 5.02, cell line not named; for G2-M population: vehicle 16.3; for G0-G1 population: vehicle 69.2
# Description: (§4) Flow cytometry: Annexin-V Alexa Fluor 488-conjugated antibody (Thermo Scientific, Waltham, Mass., USA) and To-Pro-3 (Thermo Scientific, Waltham, Mass., USA) were used according to the manufacturer's protocol and processed using Flow Jo software for at least three independent experiments. For cell cycle analysis, cells were stained with Propidium Iodide (PI) staining kit (Abcam, Cambridge, Mass., USA) and analysis was performed on Flow Jo V10 software. Staining of mitotic marker pHH3-Ser^10 was also performed by pHH3-Ser^10 and PI dual staining.
# (§5) The changes in phospho Ser10-histone H3 which is a specific marker for G2-M phase using flow cytometry were measured. […] Nocodazole synchronizes cells in G2-M phase of cell cycle. At time points 30 minutes, 2 hours and 6 hours post rescue from overnight Nocodazole treatment, PLK1 levels were higher compared to vehicle condition (FIG. 3). Then, due to rescue from cell cycle synchronization post Nocodazole treatment, PLK1 levels normalized. In response to Compound 5 treatment, while Ikaros degradation began to happen after 30 minutes of treatments, downregulation of PLK1 and CDC25C levels was evident at 48 hours post treatment. In response to Nocodazole and Compound 5 combination treatment, the decrease in PLK1 levels was accelerated. Changes in cleaved caspase 3 inversely correlated with PLK1 levels, with an increase in cleaved caspase 3 at 48 and 72 hours post Compound 5 treatment with a decrease in PLK1 levels. Cell cycle studies matched with these time points. […] In case of Nocodazole and Compound 5 combination treatment, an accelerated decrease in G2-M cells and a higher increase in sub-G1 cells was observed.
# [8] = system: phospho Ser10-histone H3; experiment: phospho Ser10-histone H3 (G2-M marker) flow cytometry; conditions: vehicle 16.5
# Description: as §4, §5
# [9] = system: AMO1 cells; experiment: Apoptosis by Annexin V and Topro staining; conditions: AMO-1 cells
# Description: as §4
# The PLK1 inhibitor BI2536 and Compound 5 were tested for their activity as individual agents and in combination in AMO1 parental and AMO1-PR cell lines. […] Changes in apoptosis were analyzed using the single agent treatments and their combination using Annexin V and Topro staining. […] Changes in Ikaros and pro-survival signaling in these cell lines was analyzed in response to BI2536 and Compound 5 after 24 and 72 hours of treatment (FIG. 5K).
# [10] = system: PLK1 signaling in MM1.S cells; experiment: Immunoblot of PLK1 signaling; conditions: FIG. 2C
# Description: Immunoblotting: Immunoblot analysis was performed using WES kits, (Protein Simple, San Jose, Calif., USA) at least two times each (n≥2), where the best representative is shown.
# The effects of pomalidomide in isogenic sensitive (EJM) and resistant (EJM-PR) and MM1.S cell lines was analyzed. […] To determine the role of PLK1 in pomalidomide response, EJM and EJM-PR cell lines were treated with pomalidomide and analyzed changes in PLK1 levels and downstream signaling. […] The changes in PLK1 transcript levels were further examined in response to pomalidomide treatment in MM1. […] Confocal microscopy was performed to study changes in PLK1 and CDC25C staining in MM1.S cells and a decrease in PLK1 levels and simultaneous decrease in CDC25C staining in response to pomalidomide and Compound 5 treatments was observed. […] Further analysis of the ChIP-seq datasets of Aiolos confirmed binding of Aiolos on TSS of PLK1 with overlapping transcriptional activation H3K27Ac signature extrapolated from publicly available ChIP-seq datasets in GM12878 cell line (Encode project). Since changes in PLK1 levels are due to decrease in PLK1 transcription in response to antiproliferative compounds, the effects of Aiolos and Ikaros knockdowns on PLK1 levels using MM1.S cells with inducible expression of Aiolos and Ikaros shRNAs were analyzed. Both Aiolos and Ikaros knock down lead to a decrease in PLK1 levels (FIG. 2F), indicating transcriptional regulation of PLK1 by substrates of Cereblon.
# [11] = system: BIRC5 (Survivin) in MM1.S cell line; experiment: BIRC5 levels in response to Compound 5; conditions: 48 and 72 hours, followed by onset of apoptosis
# Description: BIRC5 levels decreased in response to Compound 5 treatment at 48 and 72 hours, followed by an onset of apoptosis in MM1.S cell line (FIG. 23B).
# [12] = system: KARPAS-620 cell line; experiment: Proliferation assay; conditions: p-ERK High, read-out: IC50 (μM) Trametinib
# Description: as §1
# [13] = system: KMM-1 cell line; experiment: Proliferation assay; conditions: NRAS G13D, p-ERK High, read-out: IC50 (μM) Trametinib
# Description: as §1
# [14] = system: KMS-20 cell line; experiment: Proliferation assay; conditions: KRAS G12S, p-ERK High, read-out: IC50 (μM) Trametinib
# Description: as §1
# [15] = system: MOLP-8 cell line; experiment: Proliferation assay; conditions: Homo sapiens, KRAS K180del, NRAS p.Q61L, p-ERK High, read-out: IC50 (μM) Trametinib
# Description: as §1
# [16] = system: U266 cell line; experiment: Proliferation assay; conditions: Homo sapiens, U-266, BRAF K601N, p-ERK High, read-out: IC50 (μM) Trametinib
# Description: as §1
# [17] = system: H929 cell line; experiment: Proliferation assay; conditions: Homo sapiens, NCI-H929, NRAS G13D, p-ERK Medium, read-out: IC50 (μM) Trametinib
# Description: as §1, §2
# [18] = system: Mc-CAR cell line; experiment: Proliferation assay; conditions: McCAR; WT; p-ERK High; read-out: IC50 (μM) Trametinib
# Description: as §1, §2
# [19] = system: FOXM1 in AMO1-PR cell line; experiment: FOXM1 expression after BIRC5 inhibition; conditions: FIG. 26B
# From the text: (§6) Inhibition of BIRC5 by YM155 also downregulates FOXM1 and pro-survival signaling.
# [20] = system: FOXM1 in K12PE-PR cell line; experiment: FOXM1 expression after BIRC5 inhibition; conditions: FIG. 26B
# From the text: as §6
smiles,measurement,setting,value
"O=C1CC[C@H](N2Cc3c(OCc4ccc(CN5CCOCC5)cc4)cccc3C2=O)C(=O)N1 [Compound 5, (S)-3-(4-((4-(morpholinomethyl)benzyl)oxy)-1-oxoisoindolin-2-yl)piperidine-2,6-dione]",Synergy (Calcusyn) with NEK2 inhibitors (JH295 and rac-CCT 250863) on proliferation,"[1]; AMO1, NEK2 inhibitor 0.016-10 μM",strong synergy
same,Combination analysis (Calcusyn) with YM155 on proliferation,"[1]; AMO1, in combination with YM155",synergistic activity
same,Synergy with trametinib on proliferation,"[1]; AMO1, in combination with trametinib",strong synergy
same,Synergy (Calcusyn) with NEK2 inhibitors (JH295 and rac-CCT 250863) on proliferation,[2]; NEK2 inhibitor 0.016-10 μM,strong synergy
same,Combination analysis (Calcusyn) with YM155 on proliferation,[2]; in combination with YM155,synergistic activity
same,Synergy with trametinib on proliferation,[2]; in combination with trametinib,strong synergy
same,Synergy analysis (Calcusyn) of combination with JQ1 on proliferation,"[3]; K12PE cells, in combination with JQ1",synergistic
same,Synergy of combination with JQ1 on proliferation,"[4]; Pom resistant K12PE-PR, in combination with JQ1",synergistically decreased proliferation
same,IC50,[5],105 nM
same,IC50,"[6]; Homo sapiens, NEK2 knocked-down AMO1 cells",18.7 nM
same,Increase of activity by NEK2 knockdown in comparison to control shRNA cell line,[6]; IC50 control cells vs NEK2 knocked-down cells,5 fold
same,sub-G1 population,[7]; 10 nM,4.98
same,G2-M population,[7]; 10 nM,12.3
same,G0-G1 population,[7]; 10 nM,75.8
same,sub-G1 population,[7]; 30 nM,11.3
same,G2-M population,[7]; 30 nM,6.94
same,G0-G1 population,[7]; 30 nM,78.3
same,sub-G1 population,[7]; 100 nM,13.9
same,G2-M population,[7]; 100 nM,6.27
same,G0-G1 population,[7]; 100 nM,75.1
same,levels of phospho Ser10-histone H3,[8]; 10 nM,9.3
same,levels of phospho Ser10-histone H3,[8]; 30 nM,6.37
same,levels of phospho Ser10-histone H3,[8]; 100 nM,4.53
same,late apoptosis,[9]; vehicle 2.24%,3.07%
same,early apoptosis,[9]; vehicle 2.69%,4.86%
same,Dose giving decrease in PLK1 levels and downstream signaling relative to pomalidomide,[10],ten times lower dose
same,PLK1 signaling,"[10]; MMS.1 cells, increasing concentrations",dose dependent decrease
same,BIRC5 levels,[11],decreased
CC(=O)Nc1cccc(-n2c(=O)n(C3CC3)c(=O)c3c(Nc4ccc(I)cc4F)n(C)c(=O)c(C)c32)c1 [Trametinib],IC50,"[1]; Homo sapiens, Amo1, KRAS146T, p-ERK High, read-out: IC50 (μM) Trametinib",0.0012 µM
same,IC50,[12],0.07 nM
same,IC50,[13],0.00169 µM
same,IC50,[14],0.00222 µM
same,IC50,[15],0.0117 µM
same,IC50,[16],0.000353 µM
same,IC50,[17],0.00328 µM
same,IC50,[18],0.0031 µM
"COCCn1c2c([n+](Cc3cnccn3)c1C)C(=O)c1ccccc1C2=O.[Br-] [YM155, 1-(2-methoxyethyl)-2-methyl-4,9-dioxo-3-(pyrazin-2-ylmethyl)-4,9-dihydro-1H-naphtho[2,3-d]imidazol-3-ium bromide]",EC50,"[1]; Homo sapiens, AMO1, BIRC5 inhibitor",1.09 nM
same,EC50,[2]; BIRC5 inhibitor,0.12 nM
same,EC50,"[3]; K12PE, BIRC5 inhibitor",1.47 nM
same,EC50,"[4]; K12PE-PR, BIRC5 inhibitor",1.07 nM
same,FOXM1 expression,[19],downregulated FOXM1 expression in a dose dependent manner
same,FOXM1 expression,[20],downregulated FOXM1 expression in a dose dependent manner
